Measured values reported in patent publication US20130171098A1, “Cyclopropyl Fused Indolobenzazepine HCV NS5B Inhibitors” (priority 2006, published 2013).
Where two headings read alike, the source gives them in different places.

What was measured:
[1] = biological target: T1, HCV NS5B RdRp genotype 1b (Hepatitis C virus genotype 1b, UniProt Q9WMX2); assay: HCV NS5B RdRp enzyme assay (standard / modified); type: biochemical
T1 construct: The protein was expressed with an 18 amino acid C-terminal truncation to enhance the solubility; made in house; host or cells: E. coli BL21(DE3), pET21a vector
Method: HCV NS5B RdRp Cloning, Expression, and Purification.
The cDNA encoding the NS5B protein of HCV, genotype 1b, was cloned into the pET21a expression vector. The protein was expressed with an 18 amino acid C-terminal truncation to enhance the solubility. The E. coli competent cell line BL21(DE3) was used for expression of the protein. Cultures were grown at 37° C. for ˜4 hours until the cultures reached an optical density of 2.0 at 600 nm. The cultures were cooled to 20° C. and induced with 1 mM IPTG. Fresh ampicillin was added to a final concentration of 50 μg/ml and the cells were grown overnight at 20° C.
The lysis buffer consisted of 20 mM Tris-HCl, pH 7.4, 500 mM NaCl, 0.5% triton X-100, 1 mM DTT, 1 mM EDTA, 20% glycerol, 0.5 mg/ml lysozyme, 10 mM MgCl2, 15 ug/ml deoxyribonuclease I, and Complete TM protease inhibitor tablets (Roche). After addition of the lysis buffer, frozen cell pellets were resuspended using a tissue homogenizer. To reduce the viscosity of the sample, aliquots of the lysate were sonicated on ice using a microtip attached to a Branson sonicator. The sonicated lysate was centrifuged at 100,000×g for 1 hr at 4° C. and filtered through a 0.2 μm filter unit (Corning).
The protein was purified using two sequential chromatography steps: Heparin sepharose CL-6B and polyU sepharose 4B (Pharmacia). The chromatography buffers were identical to the lysis buffer but contained no lysozyme, deoxyribonuclease I, MgCl2 or protease inhibitor and the NaCl concentration of the buffer was adjusted according to the requirements for charging the protein onto the column. Each column was eluted with a NaCl gradient which varied in length from 5-50 column volumes depending on the column type. […] The enzyme was aliquoted and stored at −80° C.
Standard HCV NS5B RdRp Enzyme Assay.
HCV RdRp genotype 1b assays were run in a final volume of 60 μl in 96 well plates (Corning 3600). The assay buffer is composed of 20 mM Hepes, pH 7.5, 2.5 mM KCl, 2.5 mM MgCl2, 1 mM DTT, 1.6 U RNAse inhibitor (Promega N2515), 0.01 mg/ml BSA (Sigma B6917), and 2% glycerol. All compounds were serially diluted (3-fold) in DMSO and diluted further in water such that the final concentration of DMSO in the assay was 2%. HCV RdRp genotype 1b enzyme was used at a final concentration of 28 nM. A polyA template was used at 6 nM, and a biotinylated oligo-dT12 primer was used at 180 nM final concentration. Template was obtained commercially (Amersham 27-4110). Biotinylated primer was prepared by Sigma Genosys. 3H-UTP was used at 0.6 μCi (0.29 μM total UTP). Reactions were initiated by the addition of enzyme, incubated at 30° C. for 60 min, and stopped by adding 25 μl of 50 mM EDTA containing SPA beads (4 μg/μl, Amersham RPNQ 0007). Plates were read on a Packard Top Count NXT after >1 hr incubation at room temperature.
Modified HCV NS5B RdRp Enzyme Assay.
A modified enzyme assay was performed essentially as described for the standard enzyme assay except for the following: The biotinylated oligo dT12 primer was precaptured on streptavidin-coated SPA beads by mixing primer and beads in assay buffer and incubating at room temperature for one hour. Unbound primer was removed after centrifugation. The primer-bound beads were resuspended in 20 mM Hepes buffer, pH 7.5 and used in the assay at final concentrations of 20 nM primer and 0.67 μg/μl beads. Order of addition in the assay: enzyme (1.75 nM) was added to diluted compound followed by the addition of a mixture of template (0.36 nM), 3H-UTP (0.6 μCi, 0.29 μM), and primer-bound beads, to initiate the reaction; concentrations given are final. Reactions were allowed to proceed for 4 hours at 30° C.
IC50 values for compounds were determined using seven different [I].

[2] = system: HCV replicon cells; assay: HCV replicon FRET / luciferase assay; type: cell-based, Hepatitis C virus
Method: The HCV FRET screening assay was performed in 96-well cell culture plates. The FRET peptide (Anaspec, Inc.) (Taliani et al., Anal. Biochem. 1996, 240, 60-67) contains a fluorescence donor, EDANS, near one end of the peptide and an acceptor, DABCYL, near the other end. The fluorescence of the peptide is quenched by […] resonance energy transfer (RET) between the donor and the acceptor, but as the NS3 protease cleaves the peptide the products are released from RET quenching and the fluorescence of the donor becomes apparent. The assay reagent was made as follows: 5× cell Luciferase cell culture lysis reagent from Promega (#E153A) diluted to 1× with dH2O, NaCl added to 150 mM final, the FRET peptide diluted to 20 μM final from a 2 mM stock.
To prepare plates, HCV replicon cells, with or without a Renilla luciferase reporter gene, were trypsinized and plated in a 96-well plate with titrated test compounds added in columns 3 through 12; columns 1 and 2 contained a control compound (HCV control inhibitor), and the bottom row contained cells with DMSO only. The plates were then placed in a CO2 incubator at 37° C.
Subsequent to addition of the test compounds described above (FRET Assay Preparation), at various times the plate was removed and Alamar blue solution (Trek Diagnostics, #00-100) was added to measure cellular toxicity. After reading in a Cytoflour 4000 instrument (PE Biosystems), plates were rinsed with PBS and then used for FRET assay by the addition of 30 ul of the FRET peptide assay reagent described above (FRET Assay Preparation) per well. The plate was then placed into the Cytoflour 4000 instrument which had been set to 340 excite/490 emission, automatic mode for up to 20 cycles and the plate read in a kinetic mode. Typically, the signal to noise using an endpoint analysis after the reads was at least three-fold. Alternatively, after Alamar blue reading, plates were rinsed with PBS, then used for luciferase assay using the Promega Dual-Glo Luciferase Assay System or the Promega EnduRen Live Cell Substrate assay.
Compound analysis was performed by quantification of the relative HCV replicon inhibition and the relative cytotoxicity values. To calculate cytoxicity values, the average Alamar Blue fluorescence signals from the control wells were set as 100% non-toxic. The individual signals in each of the compound test wells were then divided by the average control signal and multiplied by 100% to determine […]. To calculate the HCV replicon inhibition values, an average background value was obtained from the two wells containing the highest amount of HCV control inhibitor at the end of the assay period. These numbers were similar to those obtained from naïve Huh-7 cells. The background numbers were then subtracted from the average signal obtained from the control wells and this number was used as 100% activity. The individual signals in each of the compound test wells were then divided by the averaged control values after background subtraction and multiplied by 100% to determine percent activity. […] The two numbers generated for the compound plate, percent cytoxicity and percent activity, were used to determine compounds of interest for further analysis.

[3] = HCV replicon cells, FRET or luciferase activity

T1 sequence (Q9WMX2 2420-2992): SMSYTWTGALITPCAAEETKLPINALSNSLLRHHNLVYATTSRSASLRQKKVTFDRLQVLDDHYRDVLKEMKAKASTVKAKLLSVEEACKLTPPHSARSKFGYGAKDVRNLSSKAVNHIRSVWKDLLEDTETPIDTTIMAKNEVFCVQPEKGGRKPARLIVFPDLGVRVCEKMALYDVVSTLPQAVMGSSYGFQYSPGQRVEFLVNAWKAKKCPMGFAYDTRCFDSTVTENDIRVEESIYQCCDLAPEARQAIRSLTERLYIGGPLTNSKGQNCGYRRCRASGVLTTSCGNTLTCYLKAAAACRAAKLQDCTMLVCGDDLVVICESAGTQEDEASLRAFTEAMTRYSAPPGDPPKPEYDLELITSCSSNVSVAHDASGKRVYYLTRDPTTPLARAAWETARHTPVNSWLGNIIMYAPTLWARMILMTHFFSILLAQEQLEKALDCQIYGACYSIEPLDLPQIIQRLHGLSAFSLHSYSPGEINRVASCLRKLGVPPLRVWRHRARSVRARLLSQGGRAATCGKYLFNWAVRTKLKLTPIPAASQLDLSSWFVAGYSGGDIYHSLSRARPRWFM

| Compound | EC50 ([2]; Hepatitis C virus) | other results |
| --- | --- | --- |
| CCC(CC)S(=O)(=O)NC(=O)c1ccc2c(C3CCCCC3)c3n(c2c1)CC1(C(=O)N2C4CCC2CN(C)C4)CC1c1cc(OC)ccc1-3 (centres unmarked) | > 110 nM | IC50 [1]: 1 to 500 nM |
| COc1ccc2c(c1)C1CC1(C(=O)N1C3CCC1CN(C)C3)Cn1c-2c(C2CCCCC2)c2ccc(C(=O)NS(=O)(=O)C(C)C)cc21 (centres unmarked) | 1 to 500 nM | – |
| CCC(C)S(=O)(=O)NC(=O)c1ccc2c(C3CCCCC3)c3n(c2c1)C[C@@]1(C(=O)N2C4CCC2CN(C)C4)C[C@H]1c1cc(OC)ccc1-3 (some centres unmarked) [drawing 132] | 1 to 500 nM | IC50 [1]: 1 to 500 nM |
| COc1ccc2c(c1)C1CC1(C(=O)N1C3CCC1CN(C)C3)Cn1c-2c(C2CCCCC2)c2ccc(C(=O)NS(=O)(=O)CC(C)C)cc21 (centres unmarked) | – | EC50 ([2]; Hepatitis C virus, HCV replicon cells, FRET or luciferase activity, read-out: EC50): 1 to 500 nM |
| COc1ccc2c(c1)C1CC1(C(=O)N1C3CCC1CN(C)C3)Cn1c-2c(C2CCCCC2)c2ccc(C(=O)NS(=O)(=O)C(C)(C)C)cc21 (centres unmarked) | 1 to 500 nM | – |
| CCC(C)S(=O)(=O)NC(=O)c1ccc2c(C3CCCCC3)c3n(c2c1)CC1(C(=O)N2C4CCC2CN(C)C4)CC1c1cc(OC)ccc1-3 (centres unmarked) | 1 to 500 nM | – |
| CC(C)S(=O)(=O)NC(=O)c1ccc2c(C3CCCCC3)c3n(c2c1)CC1(C(=O)N2C4CCC2CN(C)C4)CC1c1ccccc1-3 (centres unmarked) [drawing 126] | 1 to 500 nM | – |
| COC(=O)c1ccc2c(C3CCCCC3)c3n(c2c1)CC1(C(=O)N2C4CCC2CN(C)C4)CC1c1c(OC(F)(F)F)cccc1-3 (centres unmarked) | – | IC50 [1]: > 500 nM |
| COc1ccc2c(c1)[C@@H]1C[C@]1(C(=O)N1C3CCC1CN(C)C3)Cn1c-2c(C2CCCCC2)c2ccc(C(=O)NS(=O)(=O)C(C)C)cc21 | 1 to 500 nM | – |
| CC(C)S(=O)(=O)NC(=O)c1ccc2c(C3CCCCC3)c3n(c2c1)CC1(C(=O)N2C4CCC2CN(C)C4)CC1c1ccccc1-3 (centres unmarked) [drawing 130] | – | EC50 [2, 3]: 1 to 500 nM |
| CC(C)S(=O)(=O)NC(=O)c1ccc2c(C3CCCCC3)c3n(c2c1)CC1(C(=O)N2C4CCC2CN(C)C4)CC1c1ccccc1-3 (centres unmarked) [drawing 131] | – | EC50 [2, 3]: 1 to 500 nM |
| CCCS(=O)(=O)NC(=O)c1ccc2c(C3CCCCC3)c3n(c2c1)CC1(C(=O)N2C4CCC2CN(C)C4)CC1c1cc(OC)ccc1-3 (centres unmarked) | 1 to 500 nM | – |
| COc1ccc2c(c1)C1CC1(C(=O)N1C3CCC1CN(C)C3)Cn1c-2c(C2CCCCC2)c2ccc(C(=O)NS(=O)(=O)CCC(F)(F)F)cc21 (centres unmarked) | 1 to 500 nM | – |
| COC(=O)c1ccc2c(C3CCCCC3)c3n(c2c1)CC1(C(=O)N2C4CCC2CN(C)C4)CC1c1c(OC)cccc1-3 (centres unmarked) | – | IC50 [1]: > 500 nM |
| CN1CC2CCC(C1)N2C(=O)C12CC1c1ccccc1-c1c(C3CCCCC3)c3ccc(C(=O)NS(=O)(=O)N(C)C)cc3n1C2 (centres unmarked) | 1 to 500 nM | – |
